Measurements published in patent US20130315843A1, “COMPOSITION FOR REDUCTION OF TRPA1 AND TRPV1 SENSATIONS” (priority 2012, published 2013).
Structures can show the parent of a compound that is named as a salt. Where two headings read alike, the source gives them in different places.

Columns and labels:
human TRPA1 [1] = target: T1, human TRPA1 (Homo sapiens, UniProt O75762); test: FLIPR Ca2+ assay, reduction of hydrogen peroxide activation of TRPA1; assay type: cell-based; parameters: expressed in transfected cells
Procedure: After centrifugation, a pellet of cells was formed in the bottom of the tube separating them from the supernatant solution.
The pelleted cells were re-suspended in 10 ml assay buffer and 90 μl aliquots (˜50,000 cells) per well delivered to a 96-well assay plate containing 10 μl of test compounds ([…]) or buffer control and incubated at room temperature for 30 minutes.

human TRPA1 [2] = target: T1, human TRPA1; test: FLIPR Ca2+ assay, block of AITC activation of TRPA1; assay type: cell-based; parameters: expressed in transfected cells
Procedure: Intracellular Ca^++ levels were measured using cell based assays as described for EXAMPLES 1, 2, and 3.

human TRPV1 [3] = target: T2, human TRPV1 (Homo sapiens, UniProt Q8NER1); test: FLIPR Ca2+ assay, reduction of L-Menthol activation of TRPV1; details: for Average Ca2+ Counts / % Reduction of L-Menthol TRPV1 Activation: antagonist 100 μM against 1 mM L-Menthol; for inhibition at 100 µM: read-out: % Reduction of L-Menthol TRPV1 Activation
human TRPA1 [4] = target: T1, human TRPA1; test: FLIPR Ca2+ assay, reduction of L-Menthol activation of TRPA1; details: 100 μM antagonist vs 1 mM L-Menthol
Procedure: In order to determine whether TRPA1 is activated, the intracellular calcium ion (Ca^2+) level from transfected cells with the TRPA1 receptor gene was measured. HEK-2 cells stably transfected with human TRPA1 were grown in 15 ml growth medium [high glucose DMEM (Dulbecco's Modification of Eagle's Medium) supplemented with 10% FBS (fetal bovine serum), 100 μg/ml Penicillin/streptomycin, 100 μg/ml G418] in a 75 Cm^2 flask for 3 days at 37° C. in a mammalian cell culture incubator set at 5% CO2. Cells were detached with addition of 10 ml of PBS (phosphate buffered saline) by hand shaking gently and transferred to a 50 ml tube and centrifuged at 850 rpm for 3 minutes to remove PBS. After centrifugation, a pellet of cells was formed in the bottom of the tube separating them from the supernatant solution. […] Fluo-4 is a fluorescent dye used for quantifying cellular Ca^2+ concentrations in the 100 nM to 1 μM range.
The pelleted cells were re-suspended in 10 ml assay buffer and 90 μl aliquots (˜50,000 cells) per well delivered to a 96-well assay plate containing 10 μl of test compounds (1 mM in assay buffer, final concentration 100 μM) or buffer control and incubated at room temperature for 30 minutes. After 30 minutes, the plate was placed into a fluorometric imaging plate reader (FLIPR384 from Molecular Devices) and basal fluorescence recorded (excitation wave length 488 nm and emission wave length 510 nm). Then 20 μl of the molecule being tested as a TRPA1 antagonist was added and fluorescence recorded. For determining the direct effect of test compounds on TRPA1, fluorescence was measured immediately after addition of each compound.
To determine if a compound was an antagonist or a desensitizer the direct effect of a test compound was determined. For determining the direct effect of test compounds on TRPA1 receptor activation, 100 μl aliquots (˜50,000 cells) of cells prepared as described above were delivered to a 96-well assay plate and basal fluorescence recorded as noted above. Then 20 μl of the compound being tested as a TRPA1 activator was added and fluorescence recorded. If any increase in fluorescence over background was noted, then the compound was considered an agonist.

human TRPV1 [5] = target: T2, human TRPV1; test: FLIPR Ca2+ assay, reduction of hydrogen peroxide activation of TRPV1; assay type: cell-based; parameters: expressed in transfected cells; details: antagonist 100 μM against 500 μM hydrogen peroxide
Procedure: Cells were detached with addition of 10 ml of PBS (phosphate buffered saline) by hand shaking gently. Cells were transferred to a 50 ml tube and centrifuged at 850 rpm for 3 minutes to remove PBS.
The pelleted cells were re-suspended in 10 ml assay buffer and 90 μl aliquots (˜50,000 cells) per well delivered to a 96-well assay plate containing 10 μl of test compounds (1 mM in assay buffer, […]) or buffer control and incubated at room temperature for 30 minutes.

[6] = 100 μM antagonist vs 500 μM hydrogen peroxide
[7] = compound 100 μM against 200 μM hydrogen peroxide, Sets 1-4
[8] = compound 100 μM against 200 μM hydrogen peroxide, Sets 1-4, read-out: % Reduction of Hydrogen Peroxide TRPA1 Activation
[9] = 400 μM antagonist vs 500 μM hydrogen peroxide

T2 sequence (Q8NER1 whole entry): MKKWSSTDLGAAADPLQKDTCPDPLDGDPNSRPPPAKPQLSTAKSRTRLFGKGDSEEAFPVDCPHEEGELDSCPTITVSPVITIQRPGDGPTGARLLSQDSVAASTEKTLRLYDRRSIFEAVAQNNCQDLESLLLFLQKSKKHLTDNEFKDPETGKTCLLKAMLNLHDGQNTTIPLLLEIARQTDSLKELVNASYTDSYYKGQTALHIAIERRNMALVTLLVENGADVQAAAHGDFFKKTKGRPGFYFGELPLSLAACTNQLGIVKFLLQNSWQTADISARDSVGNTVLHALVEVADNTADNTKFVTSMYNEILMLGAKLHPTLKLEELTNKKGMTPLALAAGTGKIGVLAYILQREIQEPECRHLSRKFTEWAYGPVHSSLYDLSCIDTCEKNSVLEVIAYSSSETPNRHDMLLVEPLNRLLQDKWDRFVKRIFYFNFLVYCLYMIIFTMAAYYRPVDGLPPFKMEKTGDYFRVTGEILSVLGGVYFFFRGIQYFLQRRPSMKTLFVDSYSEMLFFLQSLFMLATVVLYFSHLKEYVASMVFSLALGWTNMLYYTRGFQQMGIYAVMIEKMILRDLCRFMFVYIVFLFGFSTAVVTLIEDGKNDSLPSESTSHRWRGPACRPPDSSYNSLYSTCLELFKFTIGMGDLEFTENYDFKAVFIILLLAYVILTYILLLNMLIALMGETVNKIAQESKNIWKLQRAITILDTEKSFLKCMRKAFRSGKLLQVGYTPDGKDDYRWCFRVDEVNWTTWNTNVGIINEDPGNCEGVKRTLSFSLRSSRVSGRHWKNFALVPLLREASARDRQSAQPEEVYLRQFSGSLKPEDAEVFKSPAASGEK
T1 sequence (O75762 whole entry): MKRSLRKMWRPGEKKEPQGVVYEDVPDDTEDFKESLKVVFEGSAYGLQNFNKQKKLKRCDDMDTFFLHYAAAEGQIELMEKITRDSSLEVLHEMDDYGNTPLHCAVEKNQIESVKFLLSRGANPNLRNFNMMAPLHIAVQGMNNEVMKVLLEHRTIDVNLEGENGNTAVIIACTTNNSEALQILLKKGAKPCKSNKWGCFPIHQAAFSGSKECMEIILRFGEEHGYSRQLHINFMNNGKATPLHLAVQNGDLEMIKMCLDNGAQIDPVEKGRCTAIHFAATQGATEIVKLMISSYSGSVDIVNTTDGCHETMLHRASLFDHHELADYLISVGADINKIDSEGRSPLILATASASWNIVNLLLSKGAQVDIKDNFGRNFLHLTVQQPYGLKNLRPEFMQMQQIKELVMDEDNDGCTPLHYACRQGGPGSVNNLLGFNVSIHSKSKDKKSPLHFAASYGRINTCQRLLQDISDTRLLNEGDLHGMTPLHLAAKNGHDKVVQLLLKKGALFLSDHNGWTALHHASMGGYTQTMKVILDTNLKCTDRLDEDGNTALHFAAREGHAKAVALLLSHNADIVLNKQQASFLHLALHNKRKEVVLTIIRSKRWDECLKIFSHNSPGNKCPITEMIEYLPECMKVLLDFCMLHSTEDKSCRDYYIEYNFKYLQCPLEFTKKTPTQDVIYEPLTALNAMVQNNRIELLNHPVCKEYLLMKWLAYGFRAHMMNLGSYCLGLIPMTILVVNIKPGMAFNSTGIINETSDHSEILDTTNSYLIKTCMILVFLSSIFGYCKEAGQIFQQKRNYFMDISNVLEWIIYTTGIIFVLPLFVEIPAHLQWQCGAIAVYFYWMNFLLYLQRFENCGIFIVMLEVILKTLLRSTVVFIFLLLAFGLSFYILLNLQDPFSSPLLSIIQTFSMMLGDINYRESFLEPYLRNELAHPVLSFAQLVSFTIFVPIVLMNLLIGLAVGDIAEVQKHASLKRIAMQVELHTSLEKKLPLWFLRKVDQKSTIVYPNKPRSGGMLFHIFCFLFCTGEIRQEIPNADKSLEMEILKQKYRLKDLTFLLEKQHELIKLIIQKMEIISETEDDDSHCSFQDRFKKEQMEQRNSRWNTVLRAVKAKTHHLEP

Compound	Average Ca2+ Counts (human TRPV1 [3])	inhibition at 100 µM (human TRPV1 [3])	Block of L-Menthol activation of TRPA1 (human TRPA1 [4])	further results
CC(C)C=C(C=O)c1ccccc1 (single isomer, unassigned) [4-Methyl-2-phenyl-2 Pentenal (mixture of cis and trans isomers)]	–	–	–	Block of hydrogen peroxide activation of TRPA1 (human TRPA1 [1]): Block both H2O2 and AITC on TRPA1; Block of AITC activation of TRPA1 (human TRPA1 [2]; 400 μM antagonist): Block both H2O2 and AITC on TRPA1
CC(S)CS (stereo not shown) [1,2-propanedithiol]	–	–	–	Block of hydrogen peroxide activation of TRPA1 (human TRPA1 [1]; [6]): Block both H2O2 and AITC on TRPA1; % Reduction of Hydrogen Peroxide TRPA1 Activation (human TRPA1 [1]; [7]): 68.8%; Average Ca++ Counts (human TRPA1 [1]; [7]): 2194.5 Counts; Block of AITC activation of TRPA1 (human TRPA1 [2]; 100 μM antagonist): Block both H2O2 and AITC on TRPA1
Cc1ccc(C=O)c(O)c1 [2-hydroxy-4-methylbenzaldehyde]	–	–	–	Block of hydrogen peroxide activation of TRPA1 (human TRPA1 [1]; [6]): Block both H2O2 and AITC on TRPA1; Average Ca++ Counts (human TRPA1 [1]; [7]): 3429.0 Counts; inhibition at 100 µM (human TRPA1 [1]; [8]): 51.3%; Block of AITC activation of TRPA1 (human TRPA1 [2]; 100 μM antagonist): Block both H2O2 and AITC on TRPA1
COc1nccnc1CC(C)C [2-isobutyl-3-methoxypyrazine]	4020.0 Counts	37.2%	BLOCK BOTH MENTHOL AND H2O2 ON TRPA1	Block of hydrogen peroxide activation of TRPA1 (human TRPA1 [1]; [6]): BLOCK BOTH MENTHOL AND H2O2 ON TRPA1; Average Ca++ Counts (human TRPA1 [1]; [7]): 3067.5 Counts; inhibition at 100 µM (human TRPA1 [1]; [8]): 56.4%
C=CCc1cc(OC)c(O)c(OC)c1 [4-Allyl-2,6-dimethoxyphenol]	–	–	–	Block of hydrogen peroxide activation of TRPA1 (human TRPA1 [1]; [9]): Block both H2O2 and AITC on TRPA1; inhibition at 400 µM (human TRPA1 [1]; antagonist 400 μM against 200 μM hydrogen peroxide, read-out: % Reduction of Hydrogen Peroxide TRPA1 Activation): 54%; Block of AITC activation of TRPA1 (human TRPA1 [2]; 400 μM antagonist): Block both H2O2 and AITC on TRPA1
CCCC(=O)OCc1ccc(OC)cc1 [Anisyl Butyrate]	–	–	–	Block of hydrogen peroxide activation of TRPA1 (human TRPA1 [1]; [9]): Block both H2O2 and AITC on TRPA1; % Reduction of Hydrogen Peroxide TRPA1 Activation (human TRPA1 [1]; antagonist 400 μM against 200 μM hydrogen peroxide): 54%; Block of AITC activation of TRPA1 (human TRPA1 [2]; 400 μM antagonist): Block both H2O2 and AITC on TRPA1
CC1=CC(=O)[C@@H](C(C)C)CC1 [L-Piperitone]	–	–	–	% Reduction of Hydrogen Peroxide TRPV1 Activation (human TRPV1 [5]): 58%
C=CCOC(=O)CCC1CCCCC1 [allyl cyclohexanepropionate]	4895.5 Counts	23.5%	BLOCK BOTH MENTHOL AND H2O2 ON TRPA1	Block of hydrogen peroxide activation of TRPA1 (human TRPA1 [1]; [6]): BLOCK BOTH MENTHOL AND H2O2 ON TRPA1; Average Ca++ Counts (human TRPA1 [1]; [7]): 3443.0 Counts; inhibition at 100 µM (human TRPA1 [1]; [8]): 51.1%
c1ccc2scnc2c1 [benzothiazole]	–	–	–	Average Ca++ Counts (human TRPA1 [1]; [7]): 5513.0 Counts; inhibition at 100 µM (human TRPA1 [1]; [8]): 48%; Block of AITC activation of TRPA1 (human TRPA1 [2]; 100 μM antagonist): Block both H2O2 and AITC on TRPA1
O=C(C=Cc1ccccc1)OCc1ccccc1 [benzyl cinnamate]	–	–	–	Block of hydrogen peroxide activation of TRPA1 (human TRPA1 [1]; [6]): Block both H2O2 and AITC on TRPA1; Average Ca++ Counts (human TRPA1 [1]; [7]): 4828.5 Counts; inhibition at 100 µM (human TRPA1 [1]; [8]): 54.4%; Block of AITC activation of TRPA1 (human TRPA1 [2]; 100 μM antagonist): Block both H2O2 and AITC on TRPA1
CCOC(=O)C1OC1c1ccccc1 (stereo not shown) [ethyl 3-phenylglycidate]	1987.0 Counts	–	BLOCK ONLY MENTHOL/TRPA1	% Reduction of L-Menthol TRPV1 Activation (human TRPV1 [3]): 50.8%
C=CCCCC(=O)OCC [ethyl 5-hexenoate]	1084.0 Counts	41.8%	BLOCK ONLY MENTHOL/TRPA1	–
CCOC(=O)CC1(C)OCCO1 [ethyl acetoacetate ethylene ketal]	–	–	–	Block of hydrogen peroxide activation of TRPA1 (human TRPA1 [1]; [6]): Block both H2O2 and AITC on TRPA1; Average Ca++ Counts (human TRPA1 [1]; [7]): 3298.5 Counts; inhibition at 100 µM (human TRPA1 [1]; [8]): 53.2%; Block of AITC activation of TRPA1 (human TRPA1 [2]; 100 μM antagonist): Block both H2O2 and AITC on TRPA1
CCCCCC(=O)OCC [ethyl hexanoate]	3655.5 Counts	42.9%	BLOCK ONLY MENTHOL/TRPA1	–
CCCCCCCC/C=C\CCCCCCCC(=O)OCC [ethyl oleate]	1431.3 Counts	25.7%	BLOCK ONLY MENTHOL/TRPA1	–
CCOC(=O)CC [ethyl propionate]	2712.0 Counts	32.8%	BLOCK ONLY MENTHOL/TRPA1	–
CCC/C=C/C(=O)OCC [ethyl trans-2-hexenoate]	1102.7 Counts	40.9%	BLOCK ONLY MENTHOL/TRPA1	–
CCCCC/C=C/CCC(=O)OCC [ethyl trans-4-decenoate]	1454.3 Counts	24.6%	BLOCK ONLY MENTHOL/TRPA1	–
COc1cc(/C=C/C(=O)O)ccc1O [ferulic acid]	1242.0 Counts	34.5%	BLOCK ONLY MENTHOL/TRPA1	–
CCCCCCCCCCCCCCCCOC(=O)C(C)O (stereo not shown) [hexadecyl lactate]	1047.0 Counts	43.5%	BLOCK ONLY MENTHOL/TRPA1	–

Compound	Average Ca2+ Counts (human TRPV1 [3])	inhibition at 100 µM (human TRPV1 [3])	Block of L-Menthol activation of TRPA1 (human TRPA1 [4])	further results
CCCOC(=O)CCCCC(=O)OCCC [hexanedioic acid, dipropyl ester]	2964.0 Counts	26.6%	BLOCK ONLY MENTHOL/TRPA1	–
CCCCCC(=O)OCC(C)C [isobutyl hexanoate]	3443.5 Counts	25.8%	BLOCK ONLY MENTHOL/TRPA1	–
CC(C)CCOC=O [isopentyl formate]	1451.7 Counts	24.8%	BLOCK ONLY MENTHOL/TRPA1	–
C/C=C(\C)C(=O)OC(C)C [isopropyl tiglate]	4497.5 Counts	29.7%	BLOCK ONLY MENTHOL/TRPA1	–
COC(=O)c1ccccc1NC(C)=O [methyl 2-(acetylamino)benzoate]	1178.3 Counts	37.4%	BLOCK ONLY MENTHOL/TRPA1	–
CCCC(C)C(=O)OC (stereo not shown) [methyl 2-methylpentanoate]	1529.3 Counts	21.2%	BLOCK ONLY MENTHOL/TRPA1	–
COC(=O)CCSC [methyl 3-(methylthio)propionate]	998.7 Counts	45.7%	BLOCK ONLY MENTHOL/TRPA1	–
CCCCCCCCSC [methyl n-octyl sulfide]	1120.3 Counts	40.1%	BLOCK ONLY MENTHOL/TRPA1	–
COC(=O)c1cccnc1 [methyl nicotinate]	1483.7 Counts	23.3%	BLOCK ONLY MENTHOL/TRPA1	–
COc1ccccc1C [o-methylanisole]	1107.3 Counts	40.7%	BLOCK ONLY MENTHOL/TRPA1	–
CCCCCCCC=O [octanal]	2759.0 Counts	31.6%	BLOCK ONLY MENTHOL/TRPA1	–
C1CNCCN1 [piperazine]	3405.0 Counts	46.8%	BLOCK BOTH MENTHOL AND H2O2 ON TRPA1	Block of hydrogen peroxide activation of TRPA1 (human TRPA1 [1]; [6]): BLOCK BOTH MENTHOL AND H2O2 ON TRPA1; Average Ca++ Counts (human TRPA1 [1]; [7]): 2815.5 Counts; inhibition at 100 µM (human TRPA1 [1]; [8]): 60%
CCC/C=C/COC(=O)CC [propionic acid trans-2-hexen-1-yl ester]	1128.3 Counts	39.7%	BLOCK ONLY MENTHOL/TRPA1	–
CCCOC(=O)C(C)=O [propyl pyruvate]	2386.5 Counts	40.9%	BLOCK ONLY MENTHOL/TRPA1	–
CC(=O)C=O [pyruvic aldehyde]	1504.0 Counts	–	BLOCK ONLY MENTHOL/TRPA1	% Reduction of L-Menthol TRPV1 Activation (human TRPV1 [3]): 22.3%
C=C[C@H]1C[N@@]2CC[C@H]1C[C@H]2[C@H](O)c1ccnc2ccc(OC)cc12 [quinine hydrochloride dihydrate]	1505.3 Counts	22.3%	BLOCK ONLY MENTHOL/TRPA1	–
CCC(C)SSC(C)CC (stereo not shown) [sec-butyl disulfide]	3652.0 Counts	21.3%	BLOCK ONLY MENTHOL/TRPA1	–
CC(=O)OCC1CCCO1 (stereo not shown) [tetrahydrofurfuryl acetate]	1269.3 Counts	33.2%	BLOCK ONLY MENTHOL/TRPA1	–
CCC/C=C/COC(C)=O [trans-2-hexenyl acetate]	1119.0 Counts	40.2%	BLOCK ONLY MENTHOL/TRPA1	–
iron naphthenate	2748.5 Counts	–	BLOCK ONLY MENTHOL/TRPA1	% Reduction of L-Menthol TRPV1 Activation (human TRPV1 [3]): 31.9%
